pIC50: −log10 of the molar value.

In general, pIC50 refers to −log10 of the IC50, conventionally taken in molar units.

This experiment deals with T1, full-length human BTK (Homo sapiens, UniProt Q06187).
T1 construct: 2.5× stocks of full-length human BTK (08-080) from CarnaBio USA, Inc; purchased CarnaBio USA, Inc., Natick, Mass; 08-080
T1 sequence (Q06187 whole entry): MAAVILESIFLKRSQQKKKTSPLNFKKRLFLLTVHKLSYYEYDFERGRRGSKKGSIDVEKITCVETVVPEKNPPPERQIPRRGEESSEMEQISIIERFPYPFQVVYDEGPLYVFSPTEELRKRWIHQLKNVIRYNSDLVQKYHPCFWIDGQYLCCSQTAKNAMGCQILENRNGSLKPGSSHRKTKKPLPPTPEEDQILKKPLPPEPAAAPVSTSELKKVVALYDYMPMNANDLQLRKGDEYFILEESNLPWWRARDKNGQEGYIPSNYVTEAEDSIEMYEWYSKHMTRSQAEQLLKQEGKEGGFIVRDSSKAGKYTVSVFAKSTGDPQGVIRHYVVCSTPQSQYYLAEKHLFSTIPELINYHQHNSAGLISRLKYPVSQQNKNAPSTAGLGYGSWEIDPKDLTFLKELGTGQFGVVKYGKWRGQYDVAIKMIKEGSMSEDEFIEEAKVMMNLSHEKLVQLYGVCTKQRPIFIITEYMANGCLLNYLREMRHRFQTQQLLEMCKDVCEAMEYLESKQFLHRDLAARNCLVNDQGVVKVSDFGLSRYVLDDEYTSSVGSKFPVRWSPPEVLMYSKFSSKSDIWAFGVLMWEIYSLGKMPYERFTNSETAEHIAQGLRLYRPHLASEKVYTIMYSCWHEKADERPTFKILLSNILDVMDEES
Put plainly: BTK IC50 Enzyme Assay (Assay A), microfluidic off-chip mobility shift kinase assay. To be noted: kinKDR peptide substrate, 90 min at 27° C. It is filed as biochemical. The protocol:
BTK IC50 Enzyme Assay (Assay A)
The following describes a microfluidic, off-chip mobility shift kinase assay used to measure inherent potency of compounds against BTK enzyme.
2.5× stocks of full-length human BTK (08-080) from CarnaBio USA, Inc., Natick, Mass., 1.6×ATP and appropriate kinKDR peptide substrate (FITC-AHA-EEPLYWSFPAKKK10 NH2) were prepared in kinase reaction buffer consisting of 25 mM MgCl2, 0.015% Brij-35 (30%), 100 mM Hepes, pH 7.5, and 10 mM DTT.
5 uL of enzyme buffer and 7.5 uL of ATP/kinKDR peptide substrate mix were added to Matrix (#115304) 384-well, sterile, polypropylene plates (Thermo Fisher Scientific, 15 Hudson, N.H.) with 125 nL of serially diluted compounds prepared in 100% DMSO, and incubated for 90 min. at 27° C. Following the incubation period, reactions were stopped by adding 60 uL stop buffer consisting of 100 mM Hepes, pH 7.5, 0.015% Brij-35 (30%), 0.277% Coating Reagent #3 (Caliper Life Sciences, Mountain View, Calif.), 5% DMSO. Stopped reactions were monitored at −2 PSI, −3000 V/−700 V in a LabChip 3000 plate 20 reader from Caliper Life Sciences, a PerkinElmer Company (Hopkinton, Mass.), and the activity was measured by off-chip mobility shift assay measuring the charge/mass difference between substrate and product resulting from peptide phosphorilation. IC50 and efficacy were determined by plotting log [Inhibitor] vs. % Activity in GeneData Screener (Basel, Switzerland).
Turning to `N#CN1CC(n2ccc3ncnc(Oc4ccc(Oc5ccccc5)cc4)c32)C1` [Compound 68, 3-[4-(4-phenoxyphenoxy)-5H-pyrrolo[3,2-d]pyrimidin-5-yl]azetidine-1-carbonitrile], the pIC50 was 5.30 to 6.00.

Take `N#CNC(=O)N1CCC(n2ccc3ncnc(Oc4ccc(Oc5ccccc5)cc4)c32)CC1` [Compound 57, N-cyano-4-(4-(4-phenoxyphenoxy)-5H-pyrrolo[3,2-d]pyrimidin-5-yl)piperidine-1-carboxamide]: the pIC50 was 6.00 to 7.00.

Take `C=CC(=O)N1CC(n2ccc3ncc(-c4ccc(Oc5ccccc5)cc4)nc32)C1` [Compound 7, 1-(3-(3-(4-phenoxyphenyl)-5H-pyrrolo[2,3-b]pyrazin-5-yl)azetidin-1-yl)prop-2-en-1-one]: the pIC50 is greater than 7.00.

As for `C=CC(=O)N1CC(n2ccc3ncnc(Oc4ccc(Cc5ccccc5)cc4)c32)C1` [Compound 17, 1-(3-(4-(4-benzylphenoxy)-5H-pyrrolo[3,2-d]pyrimidin-5-yl)azetidin-1-yl)prop-2-en-1-one], the pIC50 is greater than 7.00.

Take `CN(C)C/C=C/C(=O)N1CCCC(Cn2ccc3ncnc(Oc4ccc(Oc5ccccc5)cc4)c32)C1` (stereo not drawn) [Compound 30, (E)-4-(dimethylamino)-1-(3-((4-(4-phenoxyphenoxy)-5H-pyrrolo[3,2-d]pyrimidin-5-yl)methyl)piperidin-1-yl)but-2-en-1-one]: the pIC50 was greater than 7.00.

As to `C=CC(=O)N1CC(n2ccc3ncc(-c4ccc(Oc5ccccc5)cc4)cc32)C1` [Compound 4, 1-(3-(6-(4-phenoxyphenyl)-1H-pyrrolo[3,2-b]pyridin-1-yl)azetidin-1-yl)prop-2-en-1-one], the pIC50 is greater than 7.00.

On to `C=CC(=O)N1CC(n2ccc3ncnc(Nc4ccc(Oc5ccccc5)cc4)c32)C1` [Compound 6, 1-(3-(4-((4-phenoxyphenyl)amino)-5H-pyrrolo[3,2-d]pyrimidin-5-yl)azetidin-1-yl)prop-2-en-1-one], for which the pIC50 is greater than 7.00.

In the case of `C=CC(=O)N1CCC(Cn2ccc3ncnc(Oc4ccc(Oc5ccccc5)cc4)c32)C1` (stereo not drawn) [Compound 29, 1-(3-((4-(4-phenoxyphenoxy)-5H-pyrrolo[3,2-d]pyrimidin-5-yl)methyl)pyrrolidin-1-yl)prop-2-en-1-one], the pIC50 is greater than 7.00.

Consider `CC1=CC(C)=[N+]2C1=C(c1ccc(NC(=S)NCCOCCOCCOCCOCCC(=O)NCCN3CCN(C/C=C/C(=O)N4CCC(n5ccc6ncnc(Oc7ccc(Oc8ccccc8)cc7)c65)CC4)CC3)cc1)c1c(C)cc(C)n1[B-]2(F)F` [Compound 74, (E)-1-((4-(5,5-difluoro-1,3,7,9-tetramethyl-5H-414,514-dipyrrolo[1,2-c:2′,1′-f][1,3,2]diazaborinin-10-yl)phenyl)amino)-N-(2-(4-(4-oxo-4-(4-(4-(4-phenoxyphenoxy)-5H-pyrrolo[3,2-d]pyrimidin-5-yl)piperidin-1-yl)but-2-en-1-yl)piperazin-1-yl)ethyl)-1-thioxo-5,8,11,14-tetraoxa-2-azaheptadecan-17-amide], for which the pIC50 was 6.00 to 7.00.

As for `C=CC(=O)N[C@H]1C[C@H](n2ccc3ncnc(Oc4ccc(Oc5ccccc5)cc4)c32)C1` [Compound 8, N-(trans-3-(4-(4-phenoxyphenoxy)-5H-pyrrolo[3,2-d]pyrimidin-5-yl)cyclobutyl)acrylamide], the pIC50 was greater than 7.00.

As for `CN(C)C/C=C/C(=O)N1CC(n2ccc3ncnc(Oc4ccc(Oc5ccccc5)cc4)c32)C1` [Compound 19, (E)-4-(dimethylamino)-1-(3-(4-(4-phenoxyphenoxy)-5H-pyrrolo[3,2-d]pyrimidin-5-yl)azetidin-1-yl)but-2-en-1-one], the pIC50 was greater than 7.00.

`C=CC(=O)N1CC(n2ncc3ncc(-c4ccc(Oc5ccccc5)cc4)nc32)C1` [Compound 23, 1-(3-(6-(4-phenoxyphenyl)-1H-pyrazolo[3,4-b]pyrazin-1-yl)azetidin-1-yl)prop-2-en-1-one]: the pIC50 was greater than 7.00.

For `C=CC(=O)N1CCC(n2ccc3ncnc(Oc4ccc(Oc5ccccc5)cc4)c32)CC1` [Compound 2, 1-(4-(4-(4-phenoxyphenoxy)-5H-pyrrolo[3,2-d]pyrimidin-5-yl)piperidin-1-yl)prop-2-en-1-one], the pIC50 was greater than 7.00.

`N#CN1CCCC(n2ccc3ncnc(Oc4ccc(Oc5ccccc5)cc4)c32)C1` (stereo not drawn) [Compound 64, 3-[4-(4-phenoxyphenoxy)-5H-pyrrolo[3,2-d]pyrimidin-5-yl]piperidine-1-carbonitrile]: the pIC50 was 6.00 to 7.00.

Consider `N#CN1CCCC(Cn2ccc3ncnc(Oc4ccc(Oc5ccccc5)cc4)c32)C1` (stereo not drawn) [Compound 63, 3-[[4-(4-phenoxyphenoxy)-5H-pyrrolo[3,2-d]pyrimidin-5-yl]methyl]piperidine-1-carbonitrile], for which the pIC50 was less than 5.30.

In the case of `CN(C)C/C=C/C(=O)N1CC(n2ccc3ncc(-c4ccc(Oc5ccccc5)cc4)nc32)C1` [Compound 24, (E)-4-(dimethylamino)-1-(3-(3-(4-phenoxyphenyl)-5H-pyrrolo[2,3-b]pyrazin-5-yl)azetidin-1-yl)but-2-en-1-one], the pIC50 is greater than 7.00.

Take `CC(C)=CC(=O)N1CC(n2ccc3ncnc(Oc4ccc(Oc5ccccc5)cc4)c32)C1` [Compound 49, 3-methyl-1-(3-(4-(4-phenoxyphenoxy)-5H-pyrrolo[3,2-d]pyrimidin-5-yl)azetidin-1-yl)but-2-en-1-one]: the negative logarithm of the IC50 (pIC50) is less than 5.30.

For the compound `C=CC(=O)N1CC[C@H](n2ccc3ncnc(Oc4ccc(Oc5ccccc5)cc4)c32)C1` [Compound 5, (S)-1-(3-(4-(4-phenoxyphenoxy)-5H-pyrrolo[3,2-d]pyrimidin-5-yl)pyrrolidin-1-yl)prop-2-en-1-one], the pIC50 is greater than 7.00.

As for `C=CC(=O)NCCCn1ccc2ncnc(Oc3ccc(Oc4ccccc4)cc3)c21` [Compound 26, N-(3-(4-(4-phenoxyphenoxy)-5H-pyrrolo[3,2-d]pyrimidin-5-yl)propyl)acrylamide], the pIC50 is greater than 7.00.

Take `C=CC(=O)N1CC[C@H]1Cn1ccc2ncnc(Oc3ccc(Oc4ccccc4)cc3)c21` [Compound 25, (S)-1-(2-((4-(4-phenoxyphenoxy)-5H-pyrrolo[3,2-d]pyrimidin-5-yl)methyl)azetidin-1-yl)prop-2-en-1-one]: the pIC50 is greater than 7.00.

Turning to `CN(C)C/C=C/C(=O)N[C@H]1C[C@H](n2ccc3ncnc(Oc4ccc(Oc5ccccc5)cc4)c32)C1` [Compound 33, (E)-4-(dimethylamino)-N-(trans-3-(4-(4-phenoxyphenoxy)-5H-pyrrolo[3,2-d]pyrimidin-5-yl)cyclobutyl)but-2-enamide], the pIC50 was 6.00 to 7.00.

Consider `C=CC(=O)N1CC2(CC(n3ccc4ncnc(Oc5ccc(Oc6ccccc6)cc5)c43)C2)C1` [Compound 28, 1-(6-(4-(4-phenoxyphenoxy)-5H-pyrrolo[3,2-d]pyrimidin-5-yl)-2-azaspiro[3.3]heptan-2-yl)prop-2-en-1-one], for which the pIC50 was greater than 7.00.

As for `CCC/C=C(\C#N)C(=O)N1CCC(n2ccc3ncnc(Oc4ccc(Oc5ccccc5)cc4)c32)CC1` [Compound 55, (E)-2-(4-(4-(4-phenoxyphenoxy)-5H-pyrrolo[3,2-d]pyrimidin-5-yl)piperidine-1-carbonyl)hex-2-enenitrile], the negative-log IC50 (pIC50) was 5.30 to 6.00.

For `C=CC(=O)N1CCC(Cn2ccc3ncnc(-c4cccc(Oc5ccccc5)c4)c32)C1` (stereo not drawn) [Compound 40, 1-(3-((4-(3-phenoxyphenyl)-5H-pyrrolo[3,2-d]pyrimidin-5-yl)methyl)pyrrolidin-1-yl)prop-2-en-1-one], the pIC50 was 6.00 to 7.00.

The values are drawn from patent US9738648B2, “Pyridines, pyrimidines, and pyrazines, as BTK inhibitors and uses thereof” (Merck Patent GmbH, priority 2013, dated 2017).
